According to paper PMC7541926 (Preventive Nutrition and Food Science, 2020):

Experiments:
[1] = biological target: T1, Saccharomyces cerevisiae α-glucosidase (Saccharomyces cerevisiae, UniProt P53341); assay: Enzyme kinetics of α-glucosidase inhibitory activity; conditions: Lineweaver-Burk double reciprocal plot
[2] = biological target: T1, Saccharomyces cerevisiae α-glucosidase; assay: Enzyme assay for α-glucosidase inhibitory activity

T1 sequence (P53341 whole entry): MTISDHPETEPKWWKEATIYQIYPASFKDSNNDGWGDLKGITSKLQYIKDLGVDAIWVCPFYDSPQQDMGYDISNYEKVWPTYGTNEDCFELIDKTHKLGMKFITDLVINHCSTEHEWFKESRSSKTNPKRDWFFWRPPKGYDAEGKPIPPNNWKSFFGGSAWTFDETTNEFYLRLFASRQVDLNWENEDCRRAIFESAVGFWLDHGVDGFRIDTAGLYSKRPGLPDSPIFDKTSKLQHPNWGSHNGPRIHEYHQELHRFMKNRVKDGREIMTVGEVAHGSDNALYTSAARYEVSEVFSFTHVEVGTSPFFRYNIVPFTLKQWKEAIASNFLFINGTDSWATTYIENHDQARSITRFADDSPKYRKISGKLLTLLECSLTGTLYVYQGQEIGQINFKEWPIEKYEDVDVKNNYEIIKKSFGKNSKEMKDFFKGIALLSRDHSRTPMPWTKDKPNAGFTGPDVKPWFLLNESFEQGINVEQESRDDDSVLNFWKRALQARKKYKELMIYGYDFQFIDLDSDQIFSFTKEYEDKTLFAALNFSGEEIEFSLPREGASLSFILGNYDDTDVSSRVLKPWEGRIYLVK

Row | SMILES | Mode of inhibition [1] | IC50 [2]
1 | C[C@H]1O[C@H](O[C@H]2[C@H](O)[C@@H](O)[C@@H](O[C@H]3[C@H](O)[C@@H](O)C(O)O[C@@H]3CO)O[C@@H]2CO)[C@H](O)[C@@H](O)[C@@H]1N[C@H]1C=C(CO)[C@@H](O)[C@H](O)[C@H]1O (some centres unmarked) [Acarbose, acarbose, reference compound] | Competitive | 
2 | Oc1cc(O)c2cc(O)c(-c3ccc(O)c(O)c3)[o+]c2c1 [Cyanidin, cyanidin chloride] | Mixed type, close to non-competitive | 17 ± 1.35 µM
3 | Oc1cc(O)c2cc(O)c(-c3cc(O)c(O)c(O)c3)[o+]c2c1 [Delphinidin, delphinidin chloride] | Mixed type, close to non-competitive | 4.11 ± 0.49 µM
4 | COc1cc(-c2[o+]c3cc(O)cc(O)c3cc2O)cc(OC)c1O [Malvidin, malvidin chloride] | Mixed type, close to non-competitive | 54.7 ± 2.14 µM
5 | Oc1ccc(-c2[o+]c3cc(O)cc(O)c3cc2O)cc1 [Pelargonidin, pelargonidin chloride] | Mixed type, close to non-competitive | 50.3 ± 4 µM
6 | COc1cc(-c2[o+]c3cc(O)cc(O)c3cc2O)cc(O)c1O [Petunidin, petunidin chloride] | Competitive | 30.8 ± 1.17 µM
